This is an account of results in patent US11352340B2, “Pyridine and pyridimine compounds as PI3K-gamma inhibitors” (Incyte Corporation, priority 2016, dated 2022).

Structures are written as SMILES. Where a name gives a salt, the structure may show the parent alone. Where only a bound is given, the exact number is not on record here.

Assay [1] has as its target PI3Kδ (p110δ/p85α) Recombinant Human Protein (Homo sapiens (Human), UniProt O00329). Kind of assay: PI3Kδ Scintillation Proximity Assay. The settings on record: read-out: PI3K-delta SPA IC50. It counts as biochemical. The gist of the method: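 Recombinant human p110δ/p85α (3.4 nM) with 20 μM PIP2 and 2 μM ATP plus [γ-33P]ATP, in 20 mM MOPS pH 6.7, 10 mM MgCl2, 5 mM DTT, 0.03% CHAPS, 2% DMSO; 120 min at room temperature. Product captured on WGA SPA beads, scintillation counted; IC50 from percent-of-control curves.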

The target of assay [2] is PI3Kγ (p110γ) Recombinant Human Protein (Homo sapiens (Human), UniProt P48736). Kind of assay: PI3K-γ Scintillation Proximity Assay. Type of assay: biochemical. The settings on record: read-out: PI3K-gamma SPA IC50. In outline: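 Recombinant human p110γ (13 nM) with 20 μM PIP2 and 2 μM ATP plus 0.5 μCi [γ-33P]ATP in 20 mM MOPS pH 6.7, 10 mM MgCl2, 5 mM DTT, 0.03% CHAPS, 2% DMSO, 120 min at room temperature. Product captured on WGA SPA beads and counted; IC50 fitted from % of solvent control versus log concentration.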
Chain of PI3Kγ (p110γ) Recombinant Human Protein (P48736 whole entry): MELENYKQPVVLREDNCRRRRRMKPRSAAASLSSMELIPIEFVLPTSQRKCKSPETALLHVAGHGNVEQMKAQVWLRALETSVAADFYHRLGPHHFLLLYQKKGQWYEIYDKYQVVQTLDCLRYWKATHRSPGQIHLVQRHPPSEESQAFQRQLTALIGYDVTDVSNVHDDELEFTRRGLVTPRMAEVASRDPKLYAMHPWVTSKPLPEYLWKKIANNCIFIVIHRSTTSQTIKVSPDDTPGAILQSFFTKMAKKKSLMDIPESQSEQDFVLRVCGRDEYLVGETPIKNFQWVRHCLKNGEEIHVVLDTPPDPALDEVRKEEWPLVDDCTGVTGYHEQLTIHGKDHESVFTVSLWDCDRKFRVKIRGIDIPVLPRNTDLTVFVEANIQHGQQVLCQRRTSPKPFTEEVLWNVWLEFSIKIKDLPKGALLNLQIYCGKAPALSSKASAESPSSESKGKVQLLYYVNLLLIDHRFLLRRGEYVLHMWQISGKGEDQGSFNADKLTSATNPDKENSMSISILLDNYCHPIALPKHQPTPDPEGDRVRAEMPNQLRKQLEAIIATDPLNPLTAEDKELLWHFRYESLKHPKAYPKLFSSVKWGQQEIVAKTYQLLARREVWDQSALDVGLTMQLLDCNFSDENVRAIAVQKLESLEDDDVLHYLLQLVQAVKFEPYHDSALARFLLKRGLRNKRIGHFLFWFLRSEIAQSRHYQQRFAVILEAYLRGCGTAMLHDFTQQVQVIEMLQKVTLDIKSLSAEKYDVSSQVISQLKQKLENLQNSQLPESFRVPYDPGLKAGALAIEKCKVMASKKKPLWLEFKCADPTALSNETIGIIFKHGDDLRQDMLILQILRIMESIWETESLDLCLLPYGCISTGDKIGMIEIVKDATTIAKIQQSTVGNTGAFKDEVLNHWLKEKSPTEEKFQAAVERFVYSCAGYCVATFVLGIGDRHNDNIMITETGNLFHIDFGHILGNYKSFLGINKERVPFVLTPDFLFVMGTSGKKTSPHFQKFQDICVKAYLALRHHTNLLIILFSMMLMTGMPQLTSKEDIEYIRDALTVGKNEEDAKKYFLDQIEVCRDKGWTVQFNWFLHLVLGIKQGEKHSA
(SPA uses beads or plates that emit light when radiolabelled molecules are held near them.)

Chain of PI3Kδ (p110δ/p85α) Recombinant Human Protein (O00329 whole entry): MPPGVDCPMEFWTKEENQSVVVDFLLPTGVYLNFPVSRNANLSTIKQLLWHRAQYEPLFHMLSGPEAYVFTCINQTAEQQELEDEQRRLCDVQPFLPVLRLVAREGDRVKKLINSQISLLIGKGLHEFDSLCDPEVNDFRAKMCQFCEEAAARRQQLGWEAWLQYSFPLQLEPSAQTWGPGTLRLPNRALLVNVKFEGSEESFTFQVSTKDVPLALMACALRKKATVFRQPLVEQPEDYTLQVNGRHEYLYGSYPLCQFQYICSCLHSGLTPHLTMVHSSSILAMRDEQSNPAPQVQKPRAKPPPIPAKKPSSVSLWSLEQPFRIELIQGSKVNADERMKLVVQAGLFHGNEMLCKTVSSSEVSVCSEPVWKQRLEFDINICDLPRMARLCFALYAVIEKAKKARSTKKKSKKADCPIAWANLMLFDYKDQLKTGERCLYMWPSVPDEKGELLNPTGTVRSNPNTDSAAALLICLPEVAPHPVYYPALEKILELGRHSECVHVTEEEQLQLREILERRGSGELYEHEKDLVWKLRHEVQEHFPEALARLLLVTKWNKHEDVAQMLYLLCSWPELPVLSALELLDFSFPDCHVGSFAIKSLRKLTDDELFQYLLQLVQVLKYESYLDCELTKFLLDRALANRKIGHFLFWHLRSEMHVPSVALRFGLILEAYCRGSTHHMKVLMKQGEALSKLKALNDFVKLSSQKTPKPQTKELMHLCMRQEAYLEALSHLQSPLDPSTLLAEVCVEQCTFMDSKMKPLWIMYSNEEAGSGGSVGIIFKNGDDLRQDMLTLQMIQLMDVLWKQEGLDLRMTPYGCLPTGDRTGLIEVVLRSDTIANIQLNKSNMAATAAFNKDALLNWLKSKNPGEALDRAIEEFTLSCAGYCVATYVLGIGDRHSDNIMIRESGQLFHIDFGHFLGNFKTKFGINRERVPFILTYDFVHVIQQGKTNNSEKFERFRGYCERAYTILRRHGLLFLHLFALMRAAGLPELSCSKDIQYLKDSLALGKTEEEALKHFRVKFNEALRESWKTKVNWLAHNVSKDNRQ
Chain of PI3Kδ (p110δ/p85α) Recombinant Human Protein (P27986 whole entry partner): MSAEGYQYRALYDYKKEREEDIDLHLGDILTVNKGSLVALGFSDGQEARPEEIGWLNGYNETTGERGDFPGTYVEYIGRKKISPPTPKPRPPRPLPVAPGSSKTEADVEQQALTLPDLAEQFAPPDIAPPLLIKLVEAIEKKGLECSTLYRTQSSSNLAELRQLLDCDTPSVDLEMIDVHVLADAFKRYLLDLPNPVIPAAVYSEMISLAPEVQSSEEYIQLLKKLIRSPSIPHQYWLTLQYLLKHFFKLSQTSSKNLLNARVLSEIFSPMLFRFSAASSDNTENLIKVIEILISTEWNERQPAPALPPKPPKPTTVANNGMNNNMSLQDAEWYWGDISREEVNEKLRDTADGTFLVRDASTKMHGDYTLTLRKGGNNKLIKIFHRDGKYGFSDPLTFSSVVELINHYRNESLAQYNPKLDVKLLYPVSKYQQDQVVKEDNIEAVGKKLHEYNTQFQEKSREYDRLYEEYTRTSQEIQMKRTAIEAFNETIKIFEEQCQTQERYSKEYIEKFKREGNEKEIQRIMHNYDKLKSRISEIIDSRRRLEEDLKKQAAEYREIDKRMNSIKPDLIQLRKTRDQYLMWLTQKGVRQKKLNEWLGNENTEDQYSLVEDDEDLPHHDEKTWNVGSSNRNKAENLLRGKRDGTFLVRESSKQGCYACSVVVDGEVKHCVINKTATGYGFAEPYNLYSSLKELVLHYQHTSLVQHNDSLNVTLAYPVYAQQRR

With `COc1cncc(-c2ccnc(-c3cnc(N)[nH]3)c2)c1` [Example 61, 5-(5-Methoxy-3,4′-bipyridin-2′-yl)-1H-imidazol-2-amine], the IC50 in assay [1] and in assay [2] was above 500 nM throughout.
For the compound `COc1cncc(-c2ccnc(-c3nc(C)c(NC(C)=O)[nH]3)c2)c1` [Example 75, N-[2-(5-Methoxy-3,4′-bipyridin-2′-yl)-4-methyl-1H-imidazol-5-yl]acetamide], the IC50 in assay [1] and in assay [2] was above 500 nM each time.
For the compound `Cc1nc(-c2cc(-c3cncc(C(=O)N4CCCN(C)CC4)c3)ccn2)[nH]c1C` [Example 200, 2′-(4,5-Dimethyl-1H-imidazol-2-yl)-5-[(4-methyl-1,4-diazepan-1-yl)carbonyl]-3,4′-bipyridine], the IC50 in assay [1] and in assay [2] was at most 500 nM each time.
`Cc1[nH]c(-c2cc(-c3cncc(N4CCOCC4)c3)ccn2)nc1C(=O)N(C)C1CCOC1` (racemic) [Example 261, N,5-Dimethyl-2-(5-morpholin-4-yl-3,4′-bipyridin-2′-yl)-N-(tetrahydrofuran-3-yl)-1H-imidazole-4-carboxamide]: the IC50 in assay [1] and in assay [2] was at most 500 nM each time.
Turning to `Cc1[nH]c(-c2cc(-c3cncc(N4CCOCC4)c3)ccn2)nc1C(=O)N[C@@H]1CCN(Cc2ccccc2)C1` [Example 280, N-[(3R)-1-Benzylpyrrolidin-3-yl]-5-methyl-2-(5-morpholin-4-yl-3,4′-bipyridin-2′-yl)-1H-imidazole-4-carboxamide trifluoroacetate salt], the figures for the IC50 in assay [1] and in assay [2] were at most 50 nM and at most 500 nM, respectively.
On the same counts, the results for `Cn1nc(C(F)(F)F)cc1-c1ccnc(-c2ncc(-c3ccccc3)[nH]2)c1` [Example 14, 4-(1-Methyl-3-(trifluoromethyl)-1H-pyrazol-5-yl)-2-(5-phenyl-1H-imidazol-2-yl)pyridine trifluoroacetate salt] are above 500 nM and above 500 nM.
As to `N#Cc1ccc(C(=O)Nc2cncc(-c3ccnc(-c4ncc(-c5ccccc5)[nH]4)c3)c2)cc1` [Example 137, 4-Cyano-N-(2′-(5-phenyl-1H-imidazol-2-yl)-3,4′-bipyridin-5-yl)benzamide], the IC50 in assay [1] and in assay [2] was at most 500 nM in each case.
With `COc1cncc(-c2ccnc(-c3nc(C(=O)O)c(C(F)(F)F)[nH]3)c2)c1` [Example 81, 2-(5-Methoxy-3,4′-bipyridin-2′-yl)-5-(trifluoromethyl)-1H-imidazole-4-carboxylic acid trifluoroacetate salt], the IC50 in assay [1] and in assay [2] was above 500 nM each time.
For `COc1cncc(-c2ccnc(-c3nc4c([nH]3)CCC4)c2)c1` [Example 78, 2-(5-Methoxy-3,4′-bipyridin-2′-yl)-1,4,5,6-tetrahydrocyclopenta[d]imidazole], the IC50 in assay [1] and in assay [2] was at most 500 nM throughout.
On to `N#Cc1cccc(C(=O)Nc2cncc(-c3ccnc(-c4ncc(-c5ccccc5)[nH]4)c3)c2)c1` [Example 136, 3-Cyano-N-(2′-(5-phenyl-1H-imidazol-2-yl)-3,4′-bipyridin-5-yl)benzamide], for which the IC50 in assay [1] and in assay [2] was at most 500 nM in each case.
Consider `CCCn1cc(-c2ccnc(-c3ncc(-c4ccccc4)[nH]3)c2)cn1` [Example 12, 2-(5-Phenyl-1H-imidazol-2-yl)-4-(1-propyl-1H-pyrazol-4-yl)pyridine trifluoroacetate salt], for which the IC50 in assay [1] and in assay [2] was at most 500 nM in each case.
As for `Cc1nc(-c2cc(C3=CCCN(S(C)(=O)=O)C3)ccn2)[nH]c1C` [Example 220, 2-(4,5-Dimethyl-1H-imidazol-2-yl)-4-(1-(methylsulfonyl)-1,2,5,6-tetrahydropyridin-3-yl)pyridine trifluoroacetate salt], the IC50 in assay [1] is above 500 nM; in assay [2], at most 500 nM.
On the same counts, the results for `Cc1n[nH]c(C)c1-c1ccnc(-c2ncc(-c3ccccc3)[nH]2)c1` [Example 11, 4-(3,5-Dimethyl-1H-pyrazol-4-yl)-2-(5-phenyl-1H-imidazol-2-yl)pyridine trifluoroacetate salt] are above 500 nM and above 500 nM.
On the same counts, the results for `c1ccc(-c2cnc(-c3cc(-c4cnn(C5CCNCC5)c4)ccn3)[nH]2)cc1` [Example 25, 2-(5-Phenyl-1H-imidazol-2-yl)-4-(1-(piperidin-4-yl)-1H-pyrazol-4-yl)pyridine trifluoroacetate salt] are above 500 nM and above 500 nM.
On the same counts, the results for `N#CCCn1cc(-c2ccnc(-c3ncc(-c4ccccc4)[nH]3)c2)cn1` [Example 52, 3-(4-(2-(5-Phenyl-1H-imidazol-2-yl)pyridin-4-yl)-1H-pyrazol-1-yl)propanenitrile trifluoroacetate salt] are at most 500 nM and above 500 nM.
As for `O=C(CCn1cc(-c2ccnc(-c3ncc(-c4ccccc4)[nH]3)c2)cn1)NC1CCCC1` [Example 59, N-cyclopentyl-3-(4-(2-(5-phenyl-1H-imidazol-2-yl)pyridin-4-yl)-1H-pyrazol-1-yl)propanamide trifluoroacetate salt], the IC50 in assay [1] and in assay [2] was above 500 nM throughout.
With `Cc1nc(-c2cc(-c3cncc(C(=O)N[C@@H]4CCOC4)c3)ccn2)[nH]c1C` [Example 176, 2′-(4,5-Dimethyl-1H-imidazol-2-yl)-N-[(3R)-tetrahydrofuran-3-yl]-3,4′-bipyridine-5-carboxamide trifluoroacetate salt], the IC50 in assay [1] is at most 500 nM; in assay [2] it was at most 100 nM.
The like results for `Cc1nc(-c2cc(-c3cncc(C(=O)N4CC5(CCN(C)C5=O)C4)c3)ccn2)[nH]c1C` [Example 171, 2-(2′-(4,5-Dimethyl-1H-imidazol-2-yl)-3,4′-bipyridine-5-carbonyl)-6-methyl-2,6-diazaspiro[3.4]octan-5-one trifluoroacetate salt] were, in that order, at most 100 nM and at most 100 nM.
On the same counts, the results for `Cc1nc(-c2cc(C3CCCN(S(=O)(=O)c4ccccc4)C3)ccn2)[nH]c1C` (racemic) [Example 215, 2-(4,5-Dimethyl-1H-imidazol-2-yl)-4-[1-(phenylsulfonyl)piperidin-3-yl]pyridine Trifluoroacetate Salt] are above 500 nM and at most 500 nM.
The like results for `c1ccc(-c2cnc(-c3cc(-c4cnn(C5CCOCC5)c4)ccn3)[nH]2)cc1` [Example 47, 2-(5-Phenyl-1H-imidazol-2-yl)-4-(1-(tetrahydro-2H-pyran-4-yl)-1H-pyrazol-4-yl)pyridine trifluoroacetate salt] were, in that order, at most 50 nM and at most 500 nM.
Consider `c1ccc(-c2cnc(-c3cc(-c4cnn(C5CCOC5)c4)ccn3)[nH]2)cc1` (racemic) [Example 60, 2-(5-Phenyl-1H-imidazol-2-yl)-4-(1-(tetrahydrofuran-3-yl)-1H-pyrazol-4-yl)pyridine trifluoroacetate salt], for which the IC50 in assay [1] and in assay [2] was at most 500 nM each time.
As for `CCOC(=O)c1nc(-c2cc(-c3cncc(OC)c3)ccn2)[nH]c1C(F)(F)F` [Example 80, Ethyl 2-(5-methoxy-3,4′-bipyridin-2′-yl)-5-(trifluoromethyl)-1H-imidazole-4-carboxylate], the IC50 in assay [1] and in assay [2] was above 500 nM each time.
